According to patent publication US6924276B2, “Diacid-substituted heteroaryl derivatives as matrix metalloproteinase inhibitors” (Warner-Lambert Company, priority 2001, dated 2005):
pIC50: −log10 of the molar value.

What was measured:
[1] = biological target: MMP-13CD (catalytic domain of collagenase-3) (Homo sapiens, UniProt P45452); assay: thiopeptolide substrate hydrolysis assay, MMP-13CD; format: biochemical
Text: (§1) The invention compounds of Formula I have been evaluated in standard assays for their ability to inhibit the activity of various MMP enzymes. The assays used to evaluate the biological activity of the invention compounds are well known and routinely used by those skilled in the study of MMP inhibitors and their use to treat clinical conditions.
(§2) Such assays are described in detail by Ye et al., in Biochemistry, 1992;31(45):11231-11235, which is incorporated herein by reference.
(§3) Thiopeptolide substrates show virtually no decomposition or hydrolysis in the absence of a matrix metalloproteinase enzyme. A typical thiopeptolide substrate commonly utilized for assays is Ac-Pro-Leu-Gly-thioester;-Leu-Leu-Gly-OEt. A 100 μL assay mixture will contain 50 mM of 2-morpholinoethane sulfonic acid monohydrate (MES, pH 6.0) 10 mM CaCl2, 100 μM thiopeptolide substrate, and 1 mM 5,5′-dithio-bis-(2-nitro-benzoic acid) (DTNB). The thiopeptolide substrate concentration is varied from 10 to 800 μM to obtain Km and Kcat values. The change in absorbance at 405 nm is monitored on a Thermo Max microplate reader (Molecular Devices, Menlo Park, Calif.) at room temperature (22° C.). The calculation of the amount of hydrolysis of the thiopeptolide substrate is based on E412=13600 m^−1 cm^−1 for the DTNB-derived product 3-carboxy-4-nitrothiophenoxide. Assays are carried out with and without matrix metalloproteinase inhibitor compounds, and the amount of hydrolysis is compared for a determination of inhibitory activity of the test compounds.
Several representative compounds have been evaluated for their ability to inhibit various matrix metalloproteinase enzymes. The invention compounds are uniquely active in inhibiting MMP-13. Table 1 below presents inhibitory activity for invention compounds in the column labelled “MMP-13CD IC50, μM”. In the table, MMP-13CD refers to the catalytic domain of collagenase-3. It has been shown previously (Ye Qi-Zhuang, Hupe D., Johnson L., Current Medicinal Chemistry, 1996;3:407-418) that inhibitor activity against a catalytic domain of an MMP is predictive of the inhibitor activity against the respective full-length enzyme. Test compounds were evaluated at various concentrations in order to determine their respective IC50 values, the micromolar concentration of compound required to cause a 50% inhibition of the hydrolytic activity of the respective enzyme.

MMP-7 = biological target: T1, MMP-7 (Homo sapiens, UniProt P09237); assay: thiopeptolide substrate hydrolysis assay, MMP-7; format: biochemical; conditions: Table 2
T1 sequence (P09237 95-267): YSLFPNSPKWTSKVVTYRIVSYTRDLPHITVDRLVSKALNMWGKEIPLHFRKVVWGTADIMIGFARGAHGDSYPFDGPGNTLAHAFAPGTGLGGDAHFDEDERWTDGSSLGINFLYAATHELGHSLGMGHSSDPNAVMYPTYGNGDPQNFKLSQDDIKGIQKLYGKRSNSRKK
Text: as §1, §2, §3
(§4) The invention compounds are also selective inhibitors of MMP-13 versus other MMP enzymes, including versus MMP-7 and MMP-9. This is shown by comparing the IC50 data presented below in Table 2 in the columns labeled “MMP-7 IC50 (μM),” “MMP-9CD IC50 (μM),” and “MMP-13CD IC50 (μM),” respectively.

MMP-9CD = biological target: T2, MMP-9CD (Homo sapiens, UniProt P14780); assay: thiopeptolide substrate hydrolysis assay, MMP-9CD; format: biochemical; conditions: Table 2, catalytic domain
T2 construct: "MMP-9CD"
T2 sequence (P14780 with tags, fused parts or gaps DEL216-390 limits assumed): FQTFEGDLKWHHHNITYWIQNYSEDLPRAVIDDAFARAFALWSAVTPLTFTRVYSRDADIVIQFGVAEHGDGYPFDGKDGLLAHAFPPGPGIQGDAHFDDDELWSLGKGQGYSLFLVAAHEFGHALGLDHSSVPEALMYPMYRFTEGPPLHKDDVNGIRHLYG
Text: as §1, §2, §3, §4

| Compound | pIC50 ([1]; Table 1) | melting point | pIC50 (MMP-7) | pIC50 (MMP-9CD) | pIC50 ([1]; Table 2) |
| --- | --- | --- | --- | --- | --- |
| O=C(NCc1ccccc1)Nc1nnc(C(=O)OCc2ccccc2)s1 [Example 23, 5-(3-Benzyl-ureido)-1,3,4-thiadiazole-2-carboxylic Acid Benzyl Ester] | 4.52 | 188 to 192 °C | – | – | – |
| Cc1sc(C(=O)OCc2ccc3c(c2)OCO3)cc1NC(=O)NCc1ccccc1 [Example 15a, 4-(3-Benzyl-ureido)-5-methyl-thiophene-2-carboxylic Acid 1,3-benzodioxol-5-ylmethyl Ester] | – | 216 to 217 °C | – | – | 6.46 |
| Cc1sc(C(=O)OCc2ccccc2)cc1NC(=O)NCc1ccccc1 [Example 13, 4-(3-Benzyl-ureido)-5-methyl-thiophene-2-carboxylic Acid Benzyl Ester] | 4.66 | 208 to 209 °C | 4.52 | 4.52 | – |
| COc1cc(C(=O)NCc2ccccc2)sc1C(=O)NCc1ccccc1 [Example 22, 3-Methoxy-thiophene-2,5-dicarboxylic Acid Bis Benzylamide] | ≤ 4.00 | – | – | – | – |
| CNc1sc(C(=O)NCc2ccc(OC)cc2)cc1C(=O)NCc1ccc(C(=O)O)c(C)c1 [Example 21, 4-({[5-(4-Methoxy-benzylcarbamoyl)-2-methylamino-thiophene-3-carbonyl]-amino}-methyl)-2-methyl-benzoic Acid] | 5.47 | – | – | – | – |
| Cc1sc(C(=O)NCc2ccccc2)cc1NC(=O)Cc1ccccc1 [Example 10, 5-Methyl-4-phenylacetylamino-thiophene-2-carboxylic Acid Benzylamide] | 4.52 | – | – | 4.52 | – |
| O=C(OCc1ccc2c(c1)OCO2)c1ccc(C(=O)OCc2ccc3c(c2)OCO3)s1 [Example 1, Thiophene-2,5-dicarboxylic Acid di-1,3-benzodioxol-5-ylmethyl Ester] | 5.07 | 141 to 148 °C | – | – | – |
| Cc1sc(C(=O)NCc2ccccc2)cc1NC(=O)NCc1ccccc1 [Example 14, 4-(3-Benzyl-ureido)-5-methyl-thiophene-2-carboxylic Acid Benzylamide] | 4.85 | – | – | 4.00 | – |
| COc1cc(C(=O)OCc2ccc3c(c2)OCO3)sc1C(=O)OCc1ccc2c(c1)OCO2 [Example 3, 3-Methoxy-thiophene-2,5-dicarboxylic Acid di-1,3-benzodioxol-5-ylmethyl Ester] | 5.44 | 153 to 155 °C | – | – | – |

Now from value to molecule:

| pIC50 ([1]; Table 1) | melting point | pIC50 (MMP-7) | pIC50 (MMP-9CD) | pIC50 ([1]; Table 2) | Compound |
| --- | --- | --- | --- | --- | --- |
| 6.43 | 174 to 175 °C | 4.49 | – | – | O=C(NCc1ccc2c(c1)OCO2)c1csc(C(=O)NCc2ccc3c(c2)OCO3)c1 [Example 6, Thiophene-2,4-dicarboxylic Acid bis-[(1,3-benzodioxol-5-ylmethyl)-amide]] |
| 6.07 | 207 to 209 °C | 4.52 | 4.52 | – | O=C(NCc1ccc2c(c1)OCO2)c1ccc(C(=O)NCc2ccc3c(c2)OCO3)s1 [Example 2, Thiophene-2,5-dicarboxylic Acid bis-[(1,3-benzodioxol-5-ylmethyl)-amide]] |
| 6.04 | 194 to 195 °C | 4.35 | 4.52 | – | Cc1sc(C(=O)NCc2ccc3c(c2)OCO3)cc1NC(=O)NCc1ccccc1 [Example 15b, 4-(3-Benzyl-ureido)-5-methyl-thiophene-2-carboxylic Acid (1,3-benzodioxol-5-ylmethyl)-amide] |
| 6.01 | 103 to 110 °C | – | – | – | Cn1cc(C(=O)OCc2ccc3c(c2)OCO3)cc1C(=O)OCc1ccc2c(c1)OCO2 [Example 7, 1-Methyl-1H-pyrrole-2,4-dicarboxylic Acid di-1,3-benzodioxol-5-ylmethyl Ester] |
| 6.72 | – | – | – | – | Cc1sc(C(=O)OCc2ccc3c(c2)OCO3)cc1NC(=O)Cc1ccccc1 [Example 11, 5-Methyl-4-phenylacetylamino-thiophene-2-carboxylic Acid 1,3-benzodioxol-5-ylmethyl Ester] |
| 6.70 | 191 to 195 °C | 4.52 | – | – | COc1cc(C(=O)NCc2ccc3c(c2)OCO3)sc1C(=O)NCc1ccc2c(c1)OCO2 [Example 4, 3-Methoxy-thiophene-2,5-dicarboxylic Acid bis-[(1,3-benzodioxol-5-ylmethyl)-amide]] |
| 5.52 | 147 to 152 °C | – | – | – | Cn1cc(C(=O)NCc2ccc3c(c2)OCO3)cc1C(=O)NCc1ccc2c(c1)OCO2 [Example 8, 1-Methyl-1H-pyrrole-2,4-dicarboxylic Acid bis-[(1,3-benzodioxol-5-ylmethyl)-amide]] |
| 5.57 | 138 to 140 °C | – | – | – | Cc1sc(C(=O)NCc2ccc3c(c2)OCO3)cc1NC(=O)Cc1ccccc1 [Example 12, 5-Methyl-4-phenylacetylamino-thiophene-2-carboxylic Acid (1,3-benzodioxol-5-ylmethyl)-amide] |
| 6.35 | 164 to 165 °C | 5.00 | 4.52 | – | O=C(OCc1ccc2c(c1)OCO2)c1csc(C(=O)OCc2ccc3c(c2)OCO3)c1 [Example 5, Thiophene-2,4-dicarboxylic Acid di-1,3-benzodioxol-5-ylmethyl Ester] |
| 5.64 | 173 to 174 °C | – | – | – | Cc1sc(C(=O)OCc2ccccc2)cc1NC(=O)Cc1ccccc1 [Example 9, 5-Methyl-4-phenylacetylamino-thiophene-2-carboxylic Acid Benzyl Ester] |
| 5.70 | 185 to 187 °C | – | – | – | COC(=O)c1cc(NC(=O)NCc2ccccc2)c(C)s1 [Example 16, 5-Methyl-4-(3-benzyl-ureido)-thiophene-2-carboxylic Acid Methyl Ester] |
